Experimental data: patent publication US20180305524A1, “Inulin Nanofibers” (The American University in Cairo, priority 2014, published 2018)

How the values were obtained:
[1] = tested on: gut bifidobacteria; settings: IBS patients; cited from earlier work
[2] = tested on: S. aureus; test: Antibacterial activity, cork-borer method, inhibition zone with S. aureus; type: cell-based
Method: (§1) Polyvinyl Alcohol (PVA)/Inulin nanofibers are manufactured using electrospinning technique and tested for their prebiotic activity with Lactobacillus sp. and antibacterial activity with E. coli and S. aureus. After characterization and cross-linking of the produced PVA/Inulin Electrospun composite nanofibers (CNF), they were tested for their prebiotic activity with Lactobacillus sp. by viable count, optical density, pH and growth curve, and antibacterial activity with E. coli and S. aureus, by the cork-borer method, measuring the inhibition zone and the inhibition curve.
(§2) FIGS. 4A-B show according to an exemplary embodiment of the invention in FIG. 4A an inhibition zone of PVA electrospun Nanofibers, inulin solution, PVA/Inulin electrospun CNFs, antibiotic and water with E. coli, in FIG. 4B an inhibition zone of PVA electrospun Nanofibers, inulin solution, PVA/Inulin electrospun CNFs, antibiotic and water with S. aureus.

[3] = tested on: E. coli; test: Antibacterial activity, cork-borer method, inhibition zone with E. coli; type: cell-based
Method: as §1, §2

[4] = tested on: Bifidobacterium bifidum culture; settings: inulin extracted from artichoke; cited from earlier work
[5] = tested on: bifidobacteria and lactobacillus; settings: in vitro; cited from earlier work
[6] = tested on: Lactobacillus sp.; test: Prebiotic activity with Lactobacillus sp. culture (total viable count, pH, optical density after 24 hours incubation); type: cell-based
Method: as §1
FIGS. 2A-C show according to an exemplary embodiment of the invention in FIG. 2A Total viable count, FIG. 2B pH, and FIG. 2C Optical density of Lactobacillus sp. culture containing PVA electrospun Nanofibers, inulin solution, PVA/Inulin electrospun CNFs, and water after 24 hours of incubation.
Prebiotic activity was carried out using Lactobacillus sp. to assess the growth activity by calculating the i) total viable counts, ii) pH, iii) optical density (OD), and iv) growth curve.
The pH and the OD of the culture inoculated with the tested material were measured before incubation and after 24 hours incubation. PVA/Inulin electrospun CNFs solution decreased the pH to 5.7 compared to 6.3 for the control.

galactooligosaccharides
effectiveness as a prebiotic [1]: effective as a prebiotic

inulin [inulin solution]
inhibition zone [2]: didn't show any visible zone of inhibition
inhibition zone [3]: didn't show any visible zone of inhibition
growth of B. bifidum [4]: increased the growth
prebiotic effectiveness [5]: clear prebiotic effectiveness
pH of the culture ([6]; after 24 hours incubation, control 6.3): 6.2
lactobacillus growth (total viable count) ([6]; after 24 hours of incubation): 2.9×10^3 cfu/mL

oligofructose [oligofructose (OF)]
prebiotic effectiveness [5]: clear prebiotic effectiveness
